# Measured values as given in patent US9340596B2, “Fusion protein comprising tumor necrosis factor related apoptosis inducing ligand and integrin ligand and use thereof” (NANJING UNIVERSITY, priority 2007, dated 2016).
# Columns and labels:
# [1] = test system: normal human foreskin microvascular endothelial cells; assay: Cell toxicity on normal endothelial cells; format: cell-based; details: 300 ng/ml, 24 hours
# Description: (§1) Different from the tumor cells, the normal human foreskin microvascular endothelial cells, 293T kidney cells and primary liver cells were treated with 300 ng/ml of the TRAIL variants or TRAIL for 24 hours.
# [2] = test system: FADD−/− deficient Jurkat cells; assay: Apoptosis induction in FADD-/- deficient Jurkat cells
# Description: (§4) The fluorescence detection method was used to test the activity of Caspase-8 and Caspase-3 in the Jurkat cells after treatment of TRAIL and TRAIL variants.
# [3] = test system: Caspase-8−/− deficient Jurkat cells; assay: Apoptosis induction in Caspase-8-/- deficient Jurkat cells
# Description: as §4
# [4] = test system: COLO-205 colon cancer cells; assay: Cell apoptosis, Annexin V and PI double staining, COLO-205; format: cell-based
# Description: (§2) After the cells treated with TRAIL and its variant were digested with trypsin, they were removed from the cultivation plate, washed twice with phosphate buffer solution, and centrifuged for 5 min at 300 g centrifugal force. The supernatants were removed, and the cells were re-suspended in 100 ul of binding buffer solution. Then, Annexin V-FITC (BD Pharmgen) was added until a final concentration of 2 μg/ml was achieved, followed by incubation at room temperature. After 10 min, 400 ul of binding buffer was added, and the cells were transferred to a flow analysis tube. 1 μg of […] (Sigma Corporation) was added to each tube. The cells were analyzed with a flow cytometer within 30 min. At least three separate tests should be carried out for each cell line.
# [5] = test system: MDA-MB-231 breast cancer cells; assay: Cell apoptosis, Annexin V and PI double staining, MDA-MB-231; format: cell-based
# Description: as §2
# primary liver cells = assay: Cell toxicity on primary liver cells; format: cell-based; details: 300 ng/ml, 24 hours
# Description: as §1
# [6] = test system: COLO-205 colon cancer cells; assay: Anti-tumor efficacy on COLO-205 colon cancer model; format: in vivo, nude mice
# Description: (§3) 5-6 week-old female nude mice were purchased from Shanghai Experimental Animal Center. The nude mice were injected through their tail veins with 100 μg of a specific antibody, i.e., purified Asialo GM-1 antibody (Wako Chemicals Inc., Japan) that blocks natural killer cells. After 24 hours, the upper right sides of the back of the nude mice were inoculated subcutaneously with 100,000 COLO-205 or HT-29 colon cancer cells. When the tumors reached 70 mm3, random grouping and treatment began. The recombinant TRAIL and its variant proteins were administered intraperitoneally, once daily for 10-14 days. The water-soluble camptothecin CPT-11 (11-hydroxy-camptothecin; Product Name: Irinotecan Hydrochloride Injection; Pharmacia/Upjohn Company's product) was administered intravenously once a week, two times in total. The recombinant proteins and camptothecin were diluted with a phosphate buffer. The tumor size was measured with a caliper, and the calculation formula was: […].
# Two kinds of colon cancer models, COLO-205 and HT-29, were used to test the anti-tumor activity of the TRAIL variant in the athymic nude mice. Because COLO-205 colon cancer cells were sensitive to TRAIL, the therapeutic effect of separate use of TRAIL and TRAIL variant was assessed on this model. On the 8th day after the nude mice were inoculated with tumor cells, administration of drugs through the tail vein began for ten days in succession. The mice were divided into four groups; 100 μg TRAIL variant group, 20 μg TRAIL variant group, 100 μg wild-type TRAIL group, and PBS control group. […] Moreover, the TRAIL variant's inhibition of tumor growth was dose-dependent.
# The invention also provides the anti-tumor effect of combined use of TRAIL variant and chemotherapeutic drug CPT-11. Protein injection was carried out by intraperitoneal injection once a day for TRAIL or TRAIL variant, for two weeks total, and intravenous injection once every two days from CPT-11 via tail veins, seven times in total. […] This effect was even better than the higher dose of the TRAIL+CPT-11 combined treatment group ([…]) (89%, P=0.001, 36 days).
# 293T kidney cells = assay: Cell toxicity on 293T kidney cells; format: cell-based; details: 300 ng/ml, 24 hours
# Description: as §1
# [7] = test system: human foreskin microvascular endothelial cells; assay: Binding assay of fluorescein-labeled TRAIL and its variant with endothelial cells (flow cytometer); details: fluorescein-labeled protein, flow cytometry
# Description: The TRAIL and its variant were labeled with fluorescein (Sigma company), and the labeled proteins were separated from free fluorescein through a Sephadex-G25 size exclusion column. After human foreskin microvascular endothelial cells were digested by trypsin, washed twice with ice-cold phosphate buffer containing 2% fetal calf serum, and then re-suspended, they were added with 1 μg of labeled protein for incubation for 1 h at 4° C. The fluorescent-labeled bovine serum albumin was used as a control of the test. After being washed three times, the binding capacity of the stained cells was analyzed with a flow cytometer (Becton Dickinson Company).
# HT-29 colon cancer cells = assay: Anti-tumor efficacy on HT-29 colon cancer model; format: in vivo, nude mice; details: TRAIL-insensitive HT-29 model
# Description: as §3
# The invention also provides the anti-tumor effect of combined use of TRAIL variant and chemotherapeutic drug CPT-11. Protein injection was carried out by intraperitoneal injection once a day for TRAIL or TRAIL variant, for two weeks total, and intravenous injection once every two days from CPT-11 via tail veins, seven times in total. […]
# COLO-205 tumor tissues = assay: Drug distribution test of 125I-labeled recombinant proteins in tumor tissues; format: in vivo; details: COLO-205 tumor-bearing nude mice, 240 minutes after injection
# Description: Separate injection from tail veins of 100 μl containing […] of 125I-labeled human TRAIL or its variant protein into the COLO-205 tumor bearing nude mice. 5, 30, 60, 120 and 240 minutes after injection, the tumor tissues were peeled off separately and weighed, and the radiation amount of the tumor tissues were measured with a liquid scintillation counter. The amount of radiation in the tumor tissues is represented by the percentage of measuring radiation quantity per gram of tissues and the injected radiation quantity (% ID/g). The results are the average value of three independent tests.
# The recombinant TRAIL and the TRAIL variant protein were labeled with a radioisotope of iodine (^125I) using a labeling kit (Pierce Corp.). The labeling results were as follows: the specific activity of ^125I-TRAIL was 7.86 μCi/μg protein, and the specific activity of ^125I-TRAIL variant was 7.49 μCi/μg protein. After the nude mice were inoculated with COLO-205 colon cancer, and when the tumor size reached 400-500 mm3, they were randomly grouped into wild-type and variant group. Each group included five time points: 5 min, 30 min, 60 min, 120 min and 240 min, and each time point included three animals. […] At each time point, the mice were sacrificed, the tumors were dissected by surgery, and the radiation dose was measured through a liquid scintillation counter. […]
# Jurkat T lymphoma cells = assay: Cell apoptosis, Annexin V and PI double staining, Jurkat; format: cell-based
# Description: as §2
# [8] = test system: human foreskin microvascular endothelial cells; assay: Cell adhesion assay of human foreskin microvascular endothelial cells on protein-coated wells; format: cell-based
# Description: The TRAIL and its variant protein are coated on a 96-well PVC plate overnight at 4° C. The coated 96-well plate was rinsed with 0.9% physiological saline, and then blocked for 1 h at 1640 culture medium containing 2% bovine serum albumin, and then rinsed again. After the human foreskin microvascular endothelial cells were digested, washed three times with phosphate buffer and re-suspended into the complete RPMI1640 medium, it was then added to the 96-well plate coated with TRAIL and its variant (40,000 cell per well). After the cells were incubated for 1.5 hours in an incubator containing 5% carbon dioxide, they were washed three times with physiological saline to remove the non-adherent cells. The adherent cells were fixed for 30 min with phosphate buffer solution (pH 7.3) containing 4% formalin and 2% sucrose, and then stained with 0.5% crystal violet. The fixed stained cells were rinsed several times, then dissolved with […] DMSO to test the absorbance values at 540 nm. All the tests should be carried out at least three times independently.
compound,measurement,setting,value
"TRAIL: recombinant wild-type human tumor necrosis factor-related apoptosis-inducing ligand, comparator",cell toxicity,[1],No obvious cell toxicity
same,induction of cell apoptosis,[2],no induced cell apoptosis
same,induction of cell apoptosis,[3],no induced cell apoptosis
same,medial lethal dose,[4]; COLO-205,3.5 ng/mL
same,apoptosis rate,"[4]; COLO-205 cells, 2.43 ng/ml",43.7%
same,medial lethal dose,[5],2.3 ng/mL
same,cell toxicity,primary liver cells,No obvious cell toxicity
same,tumor inhibition rate,"[6]; COLO-205, 90 μg/day/each combined with CPT-11 6.25 mg/kg/each, 36 days",67.8%
same,tumor inhibition rate,"[6]; COLO-205, 100 μg, used alone, ten days in succession, 37th day, vs PBS control",37%
same,"mice whose tumors disappeared, among ten animals","[6]; COLO-205, 270 μg/day/each + CPT-11 combined treatment",6 mice
same,tumor inhibition effect,"[6]; COLO-205, 270 μg/day/each combined with CPT-11 6.25 mg/kg/each, 36 days",89%
same,"dose required for the same therapeutic effect, relative to TRAIL variant","[6]; COLO-205 models, combined treatment program with CPT-11",3-9 times
same,cell toxicity,293T kidney cells,No obvious cell toxicity
same,binding capacity with human foreskin microvascular endothelial cells,[7],very weak
same,"dose required, relative to TRAIL variant",HT-29 colon cancer cells,at least 2 times
same,distribution in the tumor tissues,COLO-205 tumor tissues,difficult to detect
same,medial lethal dose,Jurkat T lymphoma cells,6.7 ng/mL
same,reduction by free protein of endothelial cells adhered to microplates coated with RGD-L-TRAIL (competitive test),[8]; free protein added to plates coated with TRAIL variant protein,has no such ability
same,adhesion of human foreskin microvascular endothelial cells to culture plate wells coated with the protein,"[8]; protein coated on 96-well plate, cells incubated 1.5 hours",do not adhere
"CCc1c2c(nc3ccc(OC(=O)N4CCC(N5CCCCC5)CC4)cc13)-c1cc3c(c(=O)n1C2)COC(=O)[C@]3(O)CC [CPT-11, reference compound]",tumor growth inhibition (in words),"[6]; COLO-205, individual injection of low dose CPT-11 (6.25 mg/kg/each), vs PBS control",slightly inhibit the tumor growth
